Assay results taken from PubChem BioAssay AID248 (DTP/NCI, 2004).
“And” between values parts separate entries of the source, which are not always exact repeats. Equal entries are not always repeated. Toxic doses and inconclusive results are not listed.

System: L1210 leukemia ip in BDF1 mice, survival T/C
Test: NCI In Vivo Anticancer Drug Screen. Data for tumor model L1210 Leukemia (intraperitoneal) in B6D2F1 (BDF1) mice
Conditions: endpoint: mean survival time, higher = longer survival
Summary of the method: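 In this screen, tumor-bearing mice given compound are compared to those given vehicle, and their survival values are reported as a treated-to-control quotient.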

[1] = dose: 25.0 mg/kg/injection, schedule: Q01DX009 (ip), vehicle: saline
[2] = dose: 50.0 mg/kg/injection, schedule: Q01DX009 (ip), vehicle: saline
[3] = dose: 100.0 mg/kg/injection, schedule: Q01DX001 (ip), vehicle: saline
[4] = dose: 100.0 mg/kg/injection, schedule: Q01DX009 (ip), vehicle: saline
[5] = dose: 200.0 mg/kg/injection, schedule: Q01DX001 (ip), vehicle: saline
[6] = dose: 400.0 mg/kg/injection, schedule: Q01DX001 (ip), vehicle: saline
[7] = dose: 100.0 mg/kg/injection, schedule: Q01DX001 (ip), vehicle: Klucel (hydroxypropylcellulose) (HPC)
[8] = dose: 200.0 mg/kg/injection, schedule: Q01DX001 (ip), vehicle: Klucel (hydroxypropylcellulose) (HPC)
[9] = dose: 400.0 mg/kg/injection, schedule: Q01DX001 (ip), vehicle: Klucel (hydroxypropylcellulose) (HPC)
[10] = dose: 100.0 mg/kg/injection, schedule: Q01DX001 (ip), vehicle: saline with Tween-80
[11] = dose: 100.0 mg/kg/injection, schedule: Q01DX009 (ip), vehicle: saline with Tween-80
[12] = dose: 200.0 mg/kg/injection, schedule: Q01DX001 (ip), vehicle: saline with Tween-80
[13] = dose: 200.0 mg/kg/injection, schedule: Q01DX009 (ip), vehicle: saline with Tween-80
[14] = dose: 400.0 mg/kg/injection, schedule: Q01DX001 (ip), vehicle: saline with Tween-80

Q: For `CCN(CC)CCOC(=O)c1ccccc1N(c1ccccc1)c1ccccc1`, which T/C [1] is on record?
A: 98 % of control

Q: What about the T/C [2] of the same compound?
A: 98 % of control

Q: And the T/C (dose: 62.5 mg/kg/injection, schedule: Q01DX015 (ip), vehicle: saline)?
A: 91 % of control

Q: And the T/C [3]?
A: 92 % of control

Q: And the T/C [4]?
A: 98 % of control

Q: And the T/C (dose: 100.0 mg/kg/injection, schedule: Q04DX003 (ip), vehicle: acetone)?
A: 96 % of control

Q: What about the T/C (dose: 125.0 mg/kg/injection, schedule: Q01DX015 (ip), vehicle: saline) of the same compound?
A: 95 % of control

Q: What about the T/C (dose: 150.0 mg/kg/injection, schedule: Q01DX009 (ip), vehicle: acetone) of the same compound?
A: 96 % of control

Q: What about the T/C [5] of the same compound?
A: 103 % of control

Q: And the T/C [6]?
A: 98 % of control

Q: Which results are given for `Cc1ccc(NC(=S)N2CCCCC2C)cc1C` (stereo unspecified)?
A: T/C (dose: 100.0 mg/kg/injection, schedule: Q01DX009 (ip), vehicle: Klucel (hydroxypropylcellulose) (HPC)): 98 % of control; T/C (dose: 200.0 mg/kg/injection, schedule: Q01DX009 (ip), vehicle: Klucel (hydroxypropylcellulose) (HPC)): 101 % of control; T/C (dose: 400.0 mg/kg/injection, schedule: Q01DX009 (ip), vehicle: Klucel (hydroxypropylcellulose) (HPC)): 91 % of control

Q: With `Nc1cc(Cl)c([N+](=O)[O-])c(N)n1` as the compound, how does the T/C [7] read?
A: 101 % of control

Q: What about the T/C [8] of the same compound?
A: 106 % of control

Q: And the T/C [9]?
A: 108 % of control

Q: How did the T/C (dose: 200.0 mg/kg/injection, schedule: Q04DX003 (ip), vehicle: saline) turn out when `CC(=O)NC(C=O)CC(C=O)CO` (stereo unspecified) was run?
A: 110 % of control

Q: And the T/C (dose: 300.0 mg/kg/injection, schedule: Q04DX003 (ip), vehicle: saline)?
A: 113 % of control

Q: Which results are given for `COc1ccc(C23CCCC(=O)C2C2C(=O)CCCC23c2ccc(OC)cc2)cc1` (stereo unspecified)?
A: T/C [7]: 100 % of control; T/C (dose: 100.0 mg/kg/injection, schedule: Q04DX003 (ip), vehicle: Klucel (hydroxypropylcellulose) (HPC)): 100 % of control; T/C [8]: 97 % of control; T/C (dose: 200.0 mg/kg/injection, schedule: Q04DX003 (ip), vehicle: Klucel (hydroxypropylcellulose) (HPC)): 101 % of control; T/C [9]: 100 % of control; T/C (dose: 400.0 mg/kg/injection, schedule: Q04DX003 (ip), vehicle: Klucel (hydroxypropylcellulose) (HPC)): 95 % of control

Q: Which results are given for `O=C(COc1ccccc1)NC(=S)Nc1ccc(C(=O)O)cc1`?
A: T/C [10]: 97 % of control; T/C [11]: 102 % of control and 89 % of control; T/C (dose: 100.0 mg/kg/injection, schedule: Q04DX002 (ip), vehicle: saline with Tween-80): 97 % of control and 104 % of control; T/C [12]: 95 % of control; T/C [13]: 105 % of control and 86 % of control; T/C (dose: 200.0 mg/kg/injection, schedule: Q04DX002 (ip), vehicle: saline with Tween-80): 114 % of control and 90 % of control; T/C [14]: 101 % of control; T/C (dose: 400.0 mg/kg/injection, schedule: Q01DX009 (ip), vehicle: saline with Tween-80): 97 % of control and 89 % of control; T/C (dose: 400.0 mg/kg/injection, schedule: Q04DX002 (ip), vehicle: saline with Tween-80): 107 % of control and 90 % of control

Q: Which T/C (dose: 100.0 mg/kg/injection, schedule: Q04DX003 (ip), vehicle: other) does the source give for `Cc1nc(Cl)cc(Cl)c1C` here?
A: 106 % of control

Q: And the T/C (dose: 178.0 mg/kg/injection, schedule: Q04DX003 (ip), vehicle: other)?
A: 103 % of control

Q: What about the T/C (dose: 200.0 mg/kg/injection, schedule: Q04DX003 (ip), vehicle: other) of the same compound?
A: 104 % of control

Q: What about the T/C (dose: 266.0 mg/kg/injection, schedule: Q04DX003 (ip), vehicle: other) of the same compound?
A: 103 % of control

Q: And the T/C (dose: 400.0 mg/kg/injection, schedule: Q04DX003 (ip), vehicle: other)?
A: 89 % of control

Q: `NC(=S)N/N=C\c1c(Cl)[nH]c2ccc(/C=N/NC(N)=S)cc12` was tested. Which T/C (dose: 50.0 mg/kg/injection, schedule: Q04DX002 (ip), vehicle: Klucel (hydroxypropylcellulose) (HPC)) did it give?
A: 97 % of control

Q: What about the T/C (dose: 100.0 mg/kg/injection, schedule: Q04DX002 (ip), vehicle: Klucel (hydroxypropylcellulose) (HPC)) of the same compound?
A: 90 % of control

Q: And the T/C (dose: 200.0 mg/kg/injection, schedule: Q04DX002 (ip), vehicle: Klucel (hydroxypropylcellulose) (HPC))?
A: 94 % of control

Q: With `O=C(OC1COC(SCc2ccccc2)C(OC(=O)c2ccccc2)C1OC(=O)c1ccccc1)c1ccccc1` (stereo unspecified) as the compound, how does the T/C [3] read?
A: 98 % of control

Q: What about the T/C [5] of the same compound?
A: 110 % of control

Q: And the T/C [6]?
A: 97 % of control

Q: With `Cc1cc(O)n(Cc2ccccc2)c(=O)c1` as the compound, how does the T/C (dose: 25.0 mg/kg/injection, schedule: Q01DX009 (ip), vehicle: saline with Tween-80) read?
A: 96 % of control

Q: What about the T/C (dose: 50.0 mg/kg/injection, schedule: Q01DX009 (ip), vehicle: saline with Tween-80) of the same compound?
A: 93 % of control

Q: What about the T/C [11] of the same compound?
A: 93 % of control

Q: What about the T/C (dose: 100.0 mg/kg/injection, schedule: Q04DX003 (ip), vehicle: saline with Tween-80) of the same compound?
A: 109 % of control

Q: What about the T/C [13] of the same compound?
A: 94 % of control

Q: And the T/C (dose: 200.0 mg/kg/injection, schedule: Q04DX003 (ip), vehicle: saline with Tween-80)?
A: 98 % of control

Q: And the T/C (dose: 400.0 mg/kg/injection, schedule: Q04DX003 (ip), vehicle: saline with Tween-80)?
A: 90 % of control

Q: With `CCOC(=O)/C(C#N)=C\c1ccc(OCC)c(OCC)c1` as the compound, how does the T/C (dose: 100.0 mg/kg/injection, schedule: Q01DX Z (ip), vehicle: methylcellulose (MC)) read?
A: 101 % of control

Q: What about the T/C (dose: 200.0 mg/kg/injection, schedule: Q01DX Z (ip), vehicle: methylcellulose (MC)) of the same compound?
A: 100 % of control

Q: `CN(C)CC1CC(=O)C(CN(C)C)CC1=O` (stereo unspecified) was tested. Which T/C (dose: 5.0 mg/kg/injection, schedule: Q01DX001 (ip), vehicle: saline) did it give?
A: 92 % of control

Q: And the T/C (dose: 10.0 mg/kg/injection, schedule: Q01DX001 (ip), vehicle: saline)?
A: 107 % of control

Q: And the T/C (dose: 20.0 mg/kg/injection, schedule: Q01DX001 (ip), vehicle: saline)?
A: 104 % of control

Q: What about the T/C (dose: 40.0 mg/kg/injection, schedule: Q01DX001 (ip), vehicle: saline) of the same compound?
A: 103 % of control

Q: With `O=NN(CCCl)C(=O)Nc1c[nH]c(=O)[nH]c1=O` as the compound, how does the T/C (dose: 0.75 mg/kg/injection, schedule: Q01DX Z (ip), vehicle: carboxymethylcellulose (CMC)) read?
A: 200 % of control

Q: And the T/C (dose: 1.0 mg/kg/injection, schedule: Q01DX Z (ip), vehicle: carboxymethylcellulose (CMC))?
A: 177 % of control

Q: What about the T/C (dose: 1.5 mg/kg/injection, schedule: Q01DX Z (ip), vehicle: carboxymethylcellulose (CMC)) of the same compound?
A: 185 % of control

Q: And the T/C (dose: 2.0 mg/kg/injection, schedule: Q01DX Z (ip), vehicle: carboxymethylcellulose (CMC))?
A: 192 % of control

Q: What about the T/C (dose: 3.0 mg/kg/injection, schedule: Q01DX Z (ip), vehicle: carboxymethylcellulose (CMC)) of the same compound?
A: 210 % of control and 212 % of control

Q: What about the T/C (dose: 6.0 mg/kg/injection, schedule: Q01DX Z (ip), vehicle: carboxymethylcellulose (CMC)) of the same compound?
A: 189 % of control

Q: And the T/C (dose: 18.0 mg/kg/injection, schedule: Q01DX Z (ip), vehicle: carboxymethylcellulose (CMC))?
A: 110 % of control

Q: And the T/C (dose: 20.0 mg/kg/injection, schedule: Q01DX001 (ip), vehicle: carboxymethylcellulose (CMC))?
A: 205 % of control

Q: What about the T/C (dose: 31.0 mg/kg/injection, schedule: Q01DX001 (ip), vehicle: carboxymethylcellulose (CMC)) of the same compound?
A: 155 % of control

Q: What about the T/C (dose: 40.0 mg/kg/injection, schedule: Q01DX001 (ip), vehicle: carboxymethylcellulose (CMC)) of the same compound?
A: 288 % of control

Q: What about the T/C (dose: 50.0 mg/kg/injection, schedule: Q01DX001 (ip), vehicle: carboxymethylcellulose (CMC)) of the same compound?
A: 229 % of control

Q: And the T/C (dose: 62.0 mg/kg/injection, schedule: Q01DX001 (ip), vehicle: carboxymethylcellulose (CMC))?
A: 231 % of control

Q: And the T/C (dose: 80.0 mg/kg/injection, schedule: Q01DX001 (ip), vehicle: carboxymethylcellulose (CMC))?
A: 174 % of control

Q: And the T/C (dose: 125.0 mg/kg/injection, schedule: Q01DX001 (ip), vehicle: carboxymethylcellulose (CMC))?
A: 89 % of control

Q: What does the source list for `COc1cc2c3c(c1O)C1(C=CC(=O)C=C1)CC3N(C)CC2` (stereo unspecified)?
A: T/C [3]: 92 % of control; T/C [5]: 94 % of control; T/C [6]: 90 % of control

Q: `CN(C(=O)c1cc([N+](=O)[O-])ccc1O)c1ccc([N+](=O)[O-])cc1` was tested. Which T/C [3] did it give?
A: 97 % of control

Q: What about the T/C [5] of the same compound?
A: 95 % of control

Q: What about the T/C [6] of the same compound?
A: 97 % of control

Q: What does the source list for `Nc1nnnn1-c1ccc(O)cc1`?
A: T/C [10]: 101 % of control; T/C [12]: 103 % of control; T/C [14]: 99 % of control

Q: `CCCCCCCCCCCCCCCCC1CC2CCCCC2C1` (stereo unspecified) was tested. Which T/C [10] did it give?
A: 100 % of control

Q: What about the T/C [12] of the same compound?
A: 93 % of control

Q: What about the T/C [14] of the same compound?
A: 94 % of control

Q: For `CN(C)CC(C)(C)CN1c2ccccc2Sc2ccccc21`, which T/C (dose: 3.12 mg/kg/injection, schedule: Q01DX009 (ip), vehicle: saline) is on record?
A: 90 % of control

Q: What about the T/C (dose: 6.25 mg/kg/injection, schedule: Q01DX009 (ip), vehicle: saline) of the same compound?
A: 103 % of control

Q: And the T/C (dose: 12.5 mg/kg/injection, schedule: Q01DX009 (ip), vehicle: saline)?
A: 101 % of control

Q: And the T/C [1]?
A: 97 % of control

Q: And the T/C (dose: 25.0 mg/kg/injection, schedule: Q04DX003 (ip), vehicle: saline)?
A: 101 % of control

Q: What about the T/C [2] of the same compound?
A: 106 % of control

Q: And the T/C (dose: 50.0 mg/kg/injection, schedule: Q04DX003 (ip), vehicle: saline)?
A: 91 % of control

Q: And the T/C [4]?
A: 100 % of control
